{"source": "patent US20170152569A1", "about": "“POLYMORPHISM IN THE BCL2 GENE DETERMINES RESPONSE TO CHEMOTHERAPY” (HIDENSEQ, priority 2014, published 2017)", "key": {"HeyA8 cells [1]": {"tested_on": "HeyA8 cells", "experiment": "Sensitivity of transfected HeyA8 cells to paclitaxel (cell viability, PI/FACS)", "assay_type": "cell-based", "description": "HeyA8 ovarian cell lines were grown at 37° C. with 5% CO2 in MEM-EAGLE medium supplement with 2 mM L-glutamine, 1.5 g/L sodium bicarbonate, 4.5 g/L glucose, 10 mM HEPES, 1.0 mM sodium pyruvate and 10% fetal bovine serum (FBS).\n(§1) Propidium iodide (PI) was added to the cell suspension at a concentration of 1 μg/ml. Sorting and analyses were carried out in a Gallios flow cytometer cell sorter collecting 10,000 events. Dead cells were excluded by gating on forward and side scatter and by eliminating PI-positive events.\nCells expressing GFP-empty vector or one of three types of GFP-BCL2 variants were measured for their sensitivity to paclitaxel. Following 24 hours of transfection with one of the indicated plasmids, cells were introduced to 100 or 200 nM of paclitaxel for 24 hours incubation.\n(§2) To examine the effect of rs1801018 variant on cells sensitivity to paclitaxel, GFP-empty vector control or one of three GFP-BCL2 variants (wild-type, rs1801018 variant or random) were over-expressed in cells, which then were tested with paclitaxel. Cells were incubated with increasing concentrations of paclitaxel as indicated in methods and in FIG. 3. […] To study the relationship between resistance to paclitaxel and BCL2 gene copy numbers, a Bcl2 gradient assay was performed. The assay is designed to examine cell sensitivity to paclitaxel in the presence of increasing levels of BCL2 copies. HeyA8 cells were transfected with 5 different doses of wt-BCL2-GFP. 24 hours post transfection cells were treated with paclitaxel, and 24 hours post incubation cells viability was measured by FACS."}, "HeyA8 cells [2]": {"tested_on": "HeyA8 cells", "experiment": "Bcl2 gradient assay: cell sensitivity to paclitaxel with increasing wt-BCL2-GFP doses", "assay_type": "cell-based", "conditions": "HeyA8 cells transfected with increased concentrations of BCL2 mRNA (5 doses of wt-BCL2-GFP); viability by FACS 24 hours after paclitaxel", "description": "as §1, §2"}, "Ovarian Cancer (OV)": {"tested_on": "Ovarian Cancer (OV)", "conditions": "paclitaxel as first line; cited from earlier work"}, "[3]": {"tested_on": "Uterine Corpus Endometrial carcinoma (UCEC)", "conditions": "of 83 UCEC patients, paclitaxel as first line; cited from earlier work"}}}
{"smiles": "CC(=O)O[C@H]1C(=O)[C@@]2(C)[C@H]([C@H](OC(=O)c3ccccc3)[C@]3(O)C[C@H](OC(=O)[C@H](O)[C@@H](NC(=O)c4ccccc4)c4ccccc4)C(C)=C1C3(C)C)[C@]1(OC(C)=O)CO[C@@H]1C[C@@H]2O", "note": "[paclitaxel, (2α,4α,5β,7β,10β,13α)-4,10-Bis(acetyloxy)-13-{[(2R,3S)-3-(benzoylamino)-2-hydroxy-3-phenylpropanoyl]oxy}-1,7-dihydroxy-9-oxo-5,20-epoxytax-11-en-2-yl benzoate]", "values": [{"measurement": "sensitivity to paclitaxel", "setting": "HeyA8 cells [1]; HeyA8 cells harboring GFP-empty vector, 100 or 200 nM paclitaxel, 24 hours", "result": "high sensitivity"}, {"measurement": "cell viability in response to paclitaxel", "setting": "HeyA8 cells [1]; HeyA8 cells transfected with rs1801018 variant (BCL2-Mut), p-value <0.05", "result": "significantly improved"}, {"measurement": "cell death / cell viability in response to paclitaxel", "setting": "HeyA8 cells [1]; HeyA8 cells transfected with wild-type or random BCL2, 100 or 200 nM paclitaxel, 24 hours", "result": "reduced cell death"}, {"measurement": "relative cell death in response to paclitaxel", "setting": "HeyA8 cells [2]", "result": "decrease in relative cell death"}, {"measurement": "patients who required additional lines of diverse chemotherapies", "setting": "Ovarian Cancer (OV)", "result": 226, "unit": "patients"}, {"measurement": "patients who responded well to the first line of treatment", "setting": "Ovarian Cancer (OV)", "result": 144, "unit": "patients"}, {"measurement": "patients who require multiple lines", "setting": "[3]", "result": 20, "unit": "patients"}, {"measurement": "patients who responded to the first line of treatment", "setting": "[3]", "result": 63, "unit": "patients"}]}
